Experimental data reported in BindingDB's records for patent US9708333 (Incyte Corporation, 2017).

Legend:
[1] = target: Tyrosine-protein kinase JAK1 (Homo sapiens, UniProt P23458); experiment: JAK1 Assay
[2] = target: T1, Phosphatidylinositol 4,5-bisphosphate 3-kinase catalytic subunit delta isoform (Homo sapiens, UniProt O00329); experiment: PI3K Delta Assay
T1 sequence (O00329 whole entry): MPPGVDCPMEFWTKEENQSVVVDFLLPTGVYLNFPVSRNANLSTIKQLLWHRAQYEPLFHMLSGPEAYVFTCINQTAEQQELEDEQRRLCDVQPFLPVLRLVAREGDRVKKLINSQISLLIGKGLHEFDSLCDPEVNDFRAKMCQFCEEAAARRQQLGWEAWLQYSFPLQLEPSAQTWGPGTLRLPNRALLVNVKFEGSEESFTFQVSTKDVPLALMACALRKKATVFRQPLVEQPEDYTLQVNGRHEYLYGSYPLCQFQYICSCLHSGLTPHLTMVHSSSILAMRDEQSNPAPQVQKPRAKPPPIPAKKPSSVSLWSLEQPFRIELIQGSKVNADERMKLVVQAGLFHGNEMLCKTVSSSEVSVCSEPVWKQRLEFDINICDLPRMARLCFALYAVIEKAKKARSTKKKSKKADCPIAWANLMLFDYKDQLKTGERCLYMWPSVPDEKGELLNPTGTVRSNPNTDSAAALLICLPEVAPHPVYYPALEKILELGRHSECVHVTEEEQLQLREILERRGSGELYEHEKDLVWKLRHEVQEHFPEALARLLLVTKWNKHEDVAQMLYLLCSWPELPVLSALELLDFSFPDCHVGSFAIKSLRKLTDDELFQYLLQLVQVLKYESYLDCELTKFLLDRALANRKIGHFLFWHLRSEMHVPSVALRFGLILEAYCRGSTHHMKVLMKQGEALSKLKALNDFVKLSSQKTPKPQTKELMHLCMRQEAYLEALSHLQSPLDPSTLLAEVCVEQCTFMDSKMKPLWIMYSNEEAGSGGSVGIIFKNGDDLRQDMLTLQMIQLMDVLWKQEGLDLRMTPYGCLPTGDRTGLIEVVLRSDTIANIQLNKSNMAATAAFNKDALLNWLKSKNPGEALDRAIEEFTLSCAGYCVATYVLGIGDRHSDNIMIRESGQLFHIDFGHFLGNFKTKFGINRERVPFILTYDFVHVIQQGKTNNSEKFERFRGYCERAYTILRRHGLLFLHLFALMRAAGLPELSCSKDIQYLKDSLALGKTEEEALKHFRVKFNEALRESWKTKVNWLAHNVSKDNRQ
Excerpt: Selectivity can be measured by methods routine in the art. In some embodiments, selectivity can be tested at the Km ATP concentration of each enzyme. In some embodiments, the selectivity of compounds described herein can be determined by cellular assays associated with particular PI3K kinase activity.

Sequence of Tyrosine-protein kinase JAK1 (P23458 whole entry, canonical isoform): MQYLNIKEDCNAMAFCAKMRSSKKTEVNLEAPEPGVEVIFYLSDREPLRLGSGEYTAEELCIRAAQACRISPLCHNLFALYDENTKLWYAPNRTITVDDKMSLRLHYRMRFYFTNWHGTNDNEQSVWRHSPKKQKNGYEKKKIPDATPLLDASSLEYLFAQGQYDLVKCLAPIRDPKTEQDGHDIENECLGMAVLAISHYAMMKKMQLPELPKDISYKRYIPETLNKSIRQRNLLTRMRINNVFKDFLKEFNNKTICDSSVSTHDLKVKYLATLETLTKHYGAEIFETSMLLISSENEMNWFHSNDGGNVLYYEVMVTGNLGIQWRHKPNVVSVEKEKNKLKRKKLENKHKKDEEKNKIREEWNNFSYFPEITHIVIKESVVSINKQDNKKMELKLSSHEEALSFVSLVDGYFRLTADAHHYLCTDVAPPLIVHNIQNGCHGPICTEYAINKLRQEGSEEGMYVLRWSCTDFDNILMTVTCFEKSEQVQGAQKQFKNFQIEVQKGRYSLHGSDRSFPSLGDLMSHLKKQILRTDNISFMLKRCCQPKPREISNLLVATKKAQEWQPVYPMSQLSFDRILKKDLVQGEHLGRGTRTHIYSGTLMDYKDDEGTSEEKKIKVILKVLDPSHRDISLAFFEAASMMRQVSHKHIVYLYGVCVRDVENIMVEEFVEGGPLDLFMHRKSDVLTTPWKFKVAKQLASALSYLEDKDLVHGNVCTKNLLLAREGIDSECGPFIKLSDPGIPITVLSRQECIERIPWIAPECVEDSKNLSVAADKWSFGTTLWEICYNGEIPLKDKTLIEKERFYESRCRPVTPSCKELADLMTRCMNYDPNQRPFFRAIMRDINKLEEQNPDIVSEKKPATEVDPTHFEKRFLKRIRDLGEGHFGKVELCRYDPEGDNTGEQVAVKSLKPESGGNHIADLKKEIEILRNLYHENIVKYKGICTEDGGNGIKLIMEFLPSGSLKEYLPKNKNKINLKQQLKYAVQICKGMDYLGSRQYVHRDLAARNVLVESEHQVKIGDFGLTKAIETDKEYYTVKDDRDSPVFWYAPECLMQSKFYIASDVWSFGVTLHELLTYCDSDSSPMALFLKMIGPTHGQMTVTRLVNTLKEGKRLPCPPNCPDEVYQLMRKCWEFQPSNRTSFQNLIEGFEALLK

`N#CCC(CN1CCN(C(=O)c2ccc(C#N)cc2F)CC1)n1cc(-c2ncnc3[nH]ccc23)cn1` (configuration not stated) [4-[(4-{3-cyano-2-[4-(7H-pyrrolo[2,3-d]pyrimidin-4-yl)-1H-pyrazol-1-yl]propyl}piperazin-1-yl)carbonyl]-3-fluorobenzonitrile] gave an IC50 [1] of under 10 nM.
`CCOc1c(C(C)n2nc(C)c3c(N)ncnc32)cc(Cl)c(F)c1C1CNC(=O)C1` (configuration not stated) [4-{3-[1-(4-amino-3-methyl-1H-pyrazolo[3,4 d]pyrimidin-1-yl)ethyl]-5-chloro-2-ethoxy-6-fluorophenyl}pyrrolidin-2-one] gave an IC50 [2] of 125 nM.
